Experimental data from US8895497B2, “Cathepsin S inhibitors” (DCB-USA, LLC, priority 2009, dated 2014).

Key:
A2058 melanoma cells = test: In vivo assay, mice inoculated with A2058 melanoma cells; set-up: species or system BALB/cAnN-Foxn1nu/CrlNarl female mice
Experimental: BALB/cAnN-Foxn1nu/CrlNarl female mice were inoculated with A2058 melanoma cells. On day 7, 12 mice were treated i.v. with Compound 1 in DMSO (mg/kg) and 8 mice were treated with DMSO as control. The treatment was continued for 72 days. The mice were sacrificed and their lungs were weighted.

[1] = tested on: human A2058 melanoma cells; test: Migration/invasion of A2058 melanoma cells; assay type: cell-based
Experimental: (§1) The cancer cell migration assay was performed in 96-wll-MultiScreen-MIC plates (Millipore) with 8 μm-pore-sized polycarbonate membrane. Briefly, highly-metastatic human lung adenocarcinoma CL1-5 cells were placed onto the upper chamber (2×10^4 cells/well) with tested compounds in complete medium (RPMI 1640 medium containing 1% FBS) and only medium placed onto the lower chamber. The chamber culture was incubated for 24 h at 37° C. and, then, the non-migrated cells were washed off the upper surface of the membrane. The migrated cells on the bottom side were dissociated with Cell Detachment Buffer (Chemicon, Inc.), lysed and stained for nucleic acids with CyQuant GR dye (Molecular Probes). The signal intensities were measured using a fluorescence reader (VICTORTIM 1420 Multilabel Counter, Wallac) at excitation wavelength of 485 nm and emission wavelength of 535 nm (1 sec). The result was presented as the average values from three independent experiments performed in duplicates.
(§2) Similarly, Compounds 1 and 118 were tested against human A2058 melanoma cells and pancreatic cancer cells.

pancreatic cancer cells = test: Migration/invasion of pancreatic cancer cells; assay type: cell-based, human
Experimental: as §1, §2

With `CCOC(=O)CNC(=O)C(=O)[C@H](COCc1ccccc1)NC(=O)[C@H](CC(C)C)NC(=O)c1cccc2c1C(=O)c1ccccc1-2` (stereo in doubt) [Compound 1, Ethyl 2-(4-(benzyloxy)-3-[((2R)-4-methyl-2-[(9-oxo-9H-1-fluorenyl)carbonyl]aminopropanoyl)amino]-2-oxobutanoylamino)acetate] the lung weights (A2058 melanoma cells; A2058 inoculated mice, i.v. in DMSO from day 7, treatment continued for 72 days, DMSO control 0.671 g) was 0.471 g, the “inhibition of cancer growth in A2058 inoculated mice” value (A2058 melanoma cells; i.v. in DMSO, 72 days) was “effectively inhibited cancer growth” and the “inhibition of migratory and invasice abilities of A2058 melanoma cells” value [1] was “effectively inhibited migratory and invasice abilities”.

`O=C(NCCC1CCCCC1)C(O)[C@H](CCc1ccccc1)NC(=O)[C@H](CC1CCCCC1)NC(=O)N1CCOCC1` (stereo partly shown) [Compound 118] was tested, and the “inhibition of migratory and invasice abilities of pancreatic cancer cells” value (pancreatic cancer cells) was “effective inhibited migratory and invasice abilities”.
